test: Affinity capillary electrophoresis (ACE), pH 7.4; details: 30 mM phosphate buffer pH 7.4, 25 °C, 15 kV
From the text: To assess the CD complex formation capability of the five cathinone derivatives, we devised a screening ACE method tailored to closely mimic physiological conditions. In a preliminary study, the ACE conditions were optimized regarding the type, pH, and concentration of the background electrolyte, the applied voltage, and the injection parameters. […] In order to avoid high Joule heat generation, sufficiently low voltage should be used; thus, after registering the Ohm plot (I-U plot), it was set to 15 kV. Throughout our ACE measurements, corrections for viscosity and ionic strength were systematically implemented to ensure precise determination of complex stability constants.
The CE experiments were performed on a HP ^3DCE and on an Agilent 7100 instrument (Agilent Technologies, Waldbronn, Germany) equipped with a photodiode array detector and the Chemstation software for data handling. Untreated fused silica capillaries (50 µm id, 48.5 cm total, 40 cm effective length) were purchased from Agilent. Conditioning of new capillary was conducted by flushing with 1 M NaOH followed by 0.1 M NaOH and water for 30 min each. Prior to all runs, the capillary was preconditioned by rinsing with BGE (2 min). The temperature of the capillary was set to 25 °C. UV detection was performed at 215 nm, and 15–25 kV voltage was applied. Samples were injected hydrodynamically (150 mbar·sec, optimized in the 50–500 mbar·sec range). The CE-pH measurements were carried out applying 25 kV voltage and 200 mbar·sec injection.
The background electrolyte of the CE-pH measurements contained 25 mM Na2HPO4 and 25 mM Na2B4O7, and the appropriate pH was adjusted with hydrochloric acid. During the ACE measurements, 30 mM phosphate buffer pH 7.4 (30 mM Na2HPO4—NaOH) was used. The running buffer was 20 mM acetic acid adjusting with 1 M Tris the pH to 4.5 during the chiral screening experiments. The BGEs contained CDs at various concentrations (0.25–20 mM) in the ACE experiments and 1-5-10 mM in the chiral method optimization experiments.
Stock solutions of each cathinone analog (mephedrone, flephedrone, 4-MEC, butylone, and MDPV) were prepared separately in methanol (1 mg/ml), and appropriate dilutions with water were used to prepare sample solutions for the CE-pH titration and for the ACE studies applying DMSO as EOF marker, while their mixture was used during the chiral separation studies.
The simplest way to determine the mobility is from the migration times (tmax) read from the electropherograms from which the apparent mobility could be calculated, but more accurate mobility values could be obtained by the determination with the Haarhoff–van der Linde (HVL) function based on Equation (2). (2) HVLδ(t;a0,a1,a2,a3δ)=a0/a2a3δ2πexp[−1/2(t−a1/a2)^2]/1/exp(a3δ)−1+1/2[1+erf(t−a1/2a2)] where a0 is the area of the HVL function, a1 is the position of the Gaussian component, a2 is the standard deviation of the Gaussian component, and a3δ is the peak shape distortion. The application of the HVL function is necessary in the case of accurate ACE measurements because, in several cases, the peaks are distorted due to the complex formation, which makes reading the migration times and calculating the mobility more difficult and imprecise.
The most popular technique for quantifying the analyte–ligand interaction with CE is mobility shift ACE.

| Compound | 4-MEC–CD complex stability constant, Kstab/Kstab1 (unresolved or first migrating enantiomer) [M⁻¹] | Butylone–CD complex stability constant, Kstab/Kstab1 (unresolved or first migrating enantiomer) [M⁻¹] | MDPV–CD complex stability constant, Kstab/Kstab1 (unresolved or first migrating enantiomer) [M⁻¹] | Mephedrone–CD complex stability constant, Kstab/Kstab1 (unresolved or first migrating enantiomer) [M⁻¹] | 4-MEC–CD complex stability constant, Kstab2 (second migrating enantiomer) [M⁻¹] | Butylone–CD complex stability constant, Kstab2 (second migrating enantiomer) [M⁻¹] | Flephedrone–CD complex stability constant, Kstab2 (second migrating enantiomer) [M⁻¹] | Flephedrone–CD complex stability constant, Kstab/Kstab1 (unresolved or first migrating enantiomer) [M⁻¹] | MDPV–CD complex stability constant, Kstab2 (second migrating enantiomer) [M⁻¹] | Mephedrone–CD complex stability constant, Kstab2 (second migrating enantiomer) [M⁻¹] |
| --- | --- | --- | --- | --- | --- | --- | --- | --- | --- | --- |
| sulfated-γ-CD [S-γ-CD] | 290 ± 30 | 960 ± 95 | 250 ± 55 | 160 ± 15 | – | – | – | – | – | – |
| carboxymethylated-α-CD [CM-α-CD] | 150 ± 15 | 110 ± 12 | 240 ± 20 | 90 ± 20 | 150 ± 15 | 90 ± 12 | 90 ± 15 | 75 ± 9 | 340 ± 20 | 110 ± 20 |
| sulfobutyl-ether-γ-CD [SBE-γ-CD] | < 10 | 95 ± 15 | 160 ± 20 | 70 ± 15 | – | 100 ± 15 | – | 100 ± 5 | – | 65 ± 12 |
| hydroxypropylated-β-CD [HP-β-CD] | 80 ± 5 | 170 ± 10 | 255 ± 10 | 60 ± 4 | – | – | – | 15 ± 3 | – | – |
| randomly methylated-β-CD [RAME-β-CD] | 140 ± 7 | 325 ± 15 | 585 ± 35 | 100 ± 5 | – | 350 ± 15 | – | 40 ± 5 | – | – |
| sulfobutyl-ether-β-CD [SBE-β-CD (DS~4)] | 560 ± 60 | – | – | 300 ± 60 | 550 ± 40 | – | – | 175 ± 25 | – | 325 ± 60 |
| sulfopropylated-β-CD [SP-β-CD (DS~2)] | 440 ± 25 | 710 ± 45 | – | 390 ± 20 | – | – | – | 140 ± 12 | – | – |
| acetylated-β-CD [Ac-β-CD] | 150 ± 15 | 290 ± 30 | 310 ± 30 | 220 ± 20 | – | 380 ± 30 | – | 100 ± 14 | 240 ± 20 | – |
| sulfopropylated-β-CD [SP-β-CD (DS~4)] | 620 ± 65 | – | – | 500 ± 65 | – | – | – | 120 ± 12 | – | 450 ± 65 |
| OC[C@H]1O[C@@H]2O[C@H]3[C@H](O)[C@@H](O)[C@@H](O[C@H]4[C@H](O)[C@@H](O)[C@@H](O[C@H]5[C@H](O)[C@@H](O)[C@@H](O[C@H]6[C@H](O)[C@@H](O)[C@@H](O[C@H]7[C@H](O)[C@@H](O)[C@@H](O[C@H]1[C@H](O)[C@H]2O)O[C@@H]7CO)O[C@@H]6CO)O[C@@H]5CO)O[C@@H]4CO)O[C@@H]3CO [α-CD] | 30 ± 5 | 40 ± 5 | 40 ± 6 | 30 ± 4 | – | – | – | 40 ± 4 | 50 ± 5 | – |
| sulfo(2-hydroxy)propylated-γ-CD [SHP-γ-CD] | 30 ± 7 | 30 ± 5 | – | 15 ± 5 | 25 ± 5 | 70 ± 7 | – | 45 ± 80 | – | < 10 |
| OC[C@H]1O[C@@H]2O[C@H]3[C@H](O)[C@@H](O)[C@@H](O[C@H]4[C@H](O)[C@@H](O)[C@@H](O[C@H]5[C@H](O)[C@@H](O)[C@@H](O[C@H]6[C@H](O)[C@@H](O)[C@@H](O[C@H]7[C@H](O)[C@@H](O)[C@@H](O[C@H]8[C@H](O)[C@@H](O)[C@@H](O[C@H]1[C@H](O)[C@H]2O)O[C@@H]8CO)O[C@@H]7CO)O[C@@H]6CO)O[C@@H]5CN1CCCCC1)O[C@@H]4CO)O[C@@H]3CO [PIP-β-CD, 6-monodeoxy-6-piperidine-β-CD] | < 10 | < 10 | < 10 | < 10 | – | – | – | < 10 | – | – |
| C[N+]1(C[C@H]2O[C@@H]3O[C@H]4[C@H](O)[C@@H](O)[C@@H](O[C@H]5[C@H](O)[C@@H](O)[C@@H](O[C@H]6[C@H](O)[C@@H](O)[C@@H](O[C@H]7[C@H](O)[C@@H](O)[C@@H](O[C@H]8[C@H](O)[C@@H](O)[C@@H](O[C@H]9[C@H](O)[C@@H](O)[C@@H](O[C@H]2[C@H](O)[C@H]3O)O[C@@H]9CO)O[C@@H]8CO)O[C@@H]7CO)O[C@@H]6CO)O[C@@H]5CO)O[C@@H]4CO)CCCCC1 [MePIP-β-CD, mono-6^A-(N-methyl-piperidine)-β-CD] | 50 ± 5 | 40 ± 3 | 85 ± 5 | 45 ± 5 | – | – | – | 40 ± 3 | – | – |
